Experimental data as given in patent US7683168B2, “Compositions of novel opioid compounds and method of use thereof” (priority 2005, dated 2010).

Legend:
[1] = tested on: seizure-like convulsions in mice; experiment: mouse seizure-like convulsions; type: in vivo
Method: Mouse Seizure-Like Convulsions and antinociception: The central (CNS) effects of the compound were tested with central delta receptor mediated seizure-like convulsions and central mu opioid receptor mediated antinociceptive effects in mice. Male CD-1 mice (Charles River, Raleigh, N.C.) weighing 20-25 g were used to determine the seizure-like convulsion and antinociception activities for compounds.
They were then observed for seizure-like convulsions for one hour following the treatment. A seizure-like event was recorded if a mouse had uncontrollable clonic (or tonic/clonic) muscle movements that encompassed its entire body, usually followed by a brief cataleptic period. Catalepsy was determined by placing the animal's front paws on a horizontal bar held 2-3 inches from the cage floor. Cataleptic animals made no attempt to remove their paws.

mouse vas deferens = experiment: electrically stimulated mouse vas deferens (MVD) ED50; type: cell-based; conditions: ED50, inhibition of electrically induced contractions
human mu opioid receptor = biological target: T1, human mu opioid receptor (Homo sapiens, UniProt P35372); experiment: radioligand binding, human mu opioid receptor, CHO cell membranes; conditions: species not given, read-out: μ
T1 construct: purchased Perkin Elmer, Boston, Mass; 6110535; host or cells: CHO cells
T1 sequence (P35372 whole entry): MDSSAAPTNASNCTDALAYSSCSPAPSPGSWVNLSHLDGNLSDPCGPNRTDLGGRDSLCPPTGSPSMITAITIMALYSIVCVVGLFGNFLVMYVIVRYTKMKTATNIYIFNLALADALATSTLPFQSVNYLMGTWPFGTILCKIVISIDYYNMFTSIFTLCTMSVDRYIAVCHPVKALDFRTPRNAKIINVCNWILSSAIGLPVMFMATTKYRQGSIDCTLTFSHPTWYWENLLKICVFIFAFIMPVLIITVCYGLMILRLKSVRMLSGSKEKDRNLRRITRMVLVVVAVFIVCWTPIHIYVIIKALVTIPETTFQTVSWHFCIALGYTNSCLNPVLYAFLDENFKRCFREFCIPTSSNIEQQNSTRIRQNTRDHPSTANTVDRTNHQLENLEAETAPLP

guinea pig ileum = experiment: electrically stimulated guinea pig ileum (GPI) ED50; type: cell-based; conditions: Cavia porcellus; ED50, inhibition of electrically induced contractions
Method: Further the compounds of formula (1) were evaluated for in vitro opioid receptor activity in various receptor systems, including mouse vas deferens (Mouse Vas Deferens ED50), and guinea pig ileum (Guinea Pig Ileum ED50). The assay procedures used for such determinations of receptor activity are set out below.
Intact ileums (about 3 cm length) were removed from guinea pig and suspended with 1 g of tension in a bath chamber as described for the vasa deferentia. The ileums were stimulated with electrical square-wave pulses of 0.1-Hz, 1 msec pulse duration at supramaximal voltage.
The ED50 values were extrapolated from curves showing the dose concentration plotted against the response (J. A. H. Lord, A. A. Waterfield, J. Hughes, H. W. Kosterlitz, Nature 267, 495, (1977)).

human delta receptor = biological target: T2, human delta receptor (Homo sapiens, UniProt P41143); experiment: radioligand binding, human delta receptor, HEK-293 cell membranes; conditions: cell not marked (rat), species not given, read-out: δ
T2 construct: purchased Perkin Elmer, Boston, Mass; 6110549; host or cells: HEK-293 cells
T2 sequence (P41143 whole entry): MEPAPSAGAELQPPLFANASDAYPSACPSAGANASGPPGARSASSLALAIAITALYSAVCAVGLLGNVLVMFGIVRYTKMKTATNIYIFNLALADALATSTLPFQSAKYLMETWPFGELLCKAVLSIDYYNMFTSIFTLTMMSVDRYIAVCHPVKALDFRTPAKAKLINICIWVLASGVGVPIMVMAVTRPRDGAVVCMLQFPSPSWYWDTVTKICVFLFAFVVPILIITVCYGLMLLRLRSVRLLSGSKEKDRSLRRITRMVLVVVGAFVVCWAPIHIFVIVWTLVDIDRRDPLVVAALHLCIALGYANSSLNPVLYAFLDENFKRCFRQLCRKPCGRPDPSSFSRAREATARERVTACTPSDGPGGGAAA

SMILES: C[C@@H]1CN(C(c2cccc(O)c2)c2cccc(C(=O)N3CCCN(CC(=O)O)CC3)c2)[C@@H](C)CN1Cc1ccccc1 (stereo partly drawn)
- Seiz. ([1]; 20 mg/kg IV): 0% 20 mg/kg IV
- EC50 (mouse vas deferens): 1.4 nM
- Ki (human mu opioid receptor): 1.27 nM
- EC50 (guinea pig ileum): > 1000 nM

SMILES: CCOC(=O)CCCN1CCCN(C(=O)c2cccc(C(c3cccc(O)c3)N3C[C@@H](C)N(Cc4cccc(F)c4)C[C@@H]3C)c2)CC1 (stereo partly drawn)
- EC50 (mouse vas deferens): 30 nM
- Ki (human mu opioid receptor): 2.3 nM
- Ki (human delta receptor): 1.7 nM
- EC50 (guinea pig ileum): 1500 nM

SMILES: C[C@@H]1CN(C(c2cccc(O)c2)c2cccc(C(=O)N3CCCN(CCCCCC(=O)O)CC3)c2)[C@@H](C)CN1Cc1ccccc1 (stereo partly drawn)
- EC50 (mouse vas deferens): 3.26 nM
- Ki (human mu opioid receptor): 3.9 nM
- Ki (human delta receptor): 2.8 nM
- EC50 (guinea pig ileum): 303 nM

SMILES: CCOC(=O)CCCN1CCN(C(=O)c2cccc([C@H](c3cccc(O)c3)N3C[C@@H](C)N(Cc4ccccc4)C[C@@H]3C)c2)CC1 [Example 79, 4-(4-{3-[(R)-((2S,5R)-4-Benzyl-2,5-dimethyl-piperazin-1-yl)-(3-hydroxy-phenyl)-methyl]-benzoyl}-piperazin-1-yl)-butyric acid ethyl ester]
- Seiz. ([1]; 10 mg/kg IV): 80% 10 mg/kg IV
- EC50 (mouse vas deferens): 3.95 nM
- Ki (human mu opioid receptor): 1.3 nM
- Ki (human delta receptor): 3.7 nM

SMILES: C[C@@H]1CN([C@@H](c2cccc(O)c2)c2cccc(C(=O)N3CCN(CCCC(=O)O)CC3)c2)[C@@H](C)CN1Cc1cccc(F)c1 [Example 82, 4-(4-{3-[(R)-((2S,5R)-4-(3-Fluorobenzyl)-2,5-dimethyl-piperazin-1-yl)-(3-hydroxy-phenyl)-methyl]-benzoyl}-piperazin-1-yl)-butyric acid]
- Seiz. ([1]; 10 mg/kg IV): 0% 10 mg/kg IV
- EC50 (mouse vas deferens): 2.65 nM
- Ki (human mu opioid receptor): 13.8 nM
- Ki (human delta receptor): 31.1 nM

SMILES: C=CCN1C[C@H](C)N([C@@H](c2cccc(O)c2)c2cccc(C(=O)N3CCN(CCCCC(=O)OCC)CC3)c2)C[C@H]1C [Example 83, 5-(4-{3-[(R)-((2S,5R)-4-Allyl-2,5-dimethyl-piperazin-1-yl)-(3-hydroxy-phenyl)-methyl]-benzoyl}-piperazin-1-yl)-pentanoic acid ethyl ester]
- Seiz. ([1]; 10 mg/kg IV): 30% 10 mg/kg IV
- EC50 (mouse vas deferens): 11.8 nM
- Ki (human mu opioid receptor): 8.9 nM
- Ki (human delta receptor): 10.7 nM

SMILES: CCOC(=O)CCCCN1CCN(C(=O)c2cccc([C@H](c3cccc(O)c3)N3C[C@@H](C)N(Cc4ccccc4)C[C@@H]3C)c2)CC1 [Example 86, 5-(4-{3-[(R)-[(2S,5R)-4-Benzyl-2,5-dimethyl-piperazin-1-yl]-(3-hydroxy-phenyl)-methyl]-benzoyl}-piperazin-1-yl)-pentanoic acid ethyl ester]
- Seiz. ([1]; 10 mg/kg IV): 60% 10 mg/kg IV
- EC50 (mouse vas deferens): 12.6 nM
- Ki (human mu opioid receptor): 9.1 nM
- Ki (human delta receptor): 3.1 nM

SMILES: C[C@@H]1CN([C@@H](c2cccc(O)c2)c2cccc(C(=O)N3CCN(CCCCC(=O)O)CC3)c2)[C@@H](C)CN1Cc1cccc(F)c1 [Example 88, 5-(4-{3-[(R)-((2S,5R)-4-(3-Fluorobenzyl)-2,5-dimethyl-piperazin-1-yl)-(3-hydroxy-phenyl)-methyl]-benzoyl}-piperazin-1-yl)-pentanoic acid]
- Seiz. ([1]; 10 mg/kg IV): 0% 10 mg/kg IV
- EC50 (mouse vas deferens): 6.66 nM
- Ki (human mu opioid receptor): 211 nM
- Ki (human delta receptor): 16.9 nM

SMILES: C=CCN1C[C@H](C)N([C@@H](c2cccc(O)c2)c2cccc(C(=O)N3CCN(Cc4ccc(C(=O)OC)cc4)CC3)c2)C[C@H]1C [Example 91, 4-(4-{3-[(R)-((2S,5R)-4-Allyl-2,5-dimethyl-piperazin-1-yl)-(3-hydroxy-phenyl)-methyl]-benzoyl}-piperazin-1-ylmethyl)-benzoic acid methyl ester]
- Seiz. ([1]; 10 mg/kg IV): 70% 10 mg/kg IV
- EC50 (mouse vas deferens): 23.1 nM
- Ki (human mu opioid receptor): 6.5 nM
- Ki (human delta receptor): 2.7 nM

SMILES: C=CCN1C[C@H](C)N([C@@H](c2cccc(O)c2)c2cccc(C(=O)N3CCN(CCCCCC(=O)O)CC3)c2)C[C@H]1C [Example 94, 6-(4-{3-[(R)-((2S,5R)-4-Allyl-2,5-dimethyl-piperazin-1-yl)-(3-hydroxy-phenyl)-methyl]-benzoyl}-piperazin-1-yl)-hexanoic acid]
- Seiz. ([1]; 10 mg/kg IV): 0% 10 mg/kg IV
- EC50 (mouse vas deferens): 6.07 nM
- Ki (human mu opioid receptor): 64.3 nM
- Ki (human delta receptor): 2.5 nM

SMILES: CCOC(=O)CCCCCN1CCN(C(=O)c2cccc([C@H](c3cccc(O)c3)N3C[C@@H](C)N(Cc4ccccc4)C[C@@H]3C)c2)CC1 [Example 96, 6-(4-{3-[(R)-((2S,5R)-4-Benzyl-2,5-dimethyl-piperazin-1-yl)-(3-hydroxy-phenyl)-methyl]-benzoyl}-piperazin-1-yl)-hexanoic acid ethyl ester]
- Seiz. ([1]; 10 mg/kg IV): 60% 10 mg/kg IV
- EC50 (mouse vas deferens): 10.4 nM
- Ki (human mu opioid receptor): 2 nM
- Ki (human delta receptor): 6.9 nM

SMILES: C[C@@H]1CN([C@@H](c2cccc(O)c2)c2cccc(C(=O)N3CCN(CCCCCC(=O)O)CC3)c2)[C@@H](C)CN1Cc1ccccc1 [Example 97, 6-(4-{3-[(R)-((2S,5R)-4-Benzyl-2,5-dimethyl-piperazin-1-yl)-(3-hydroxy-phenyl)-methyl]-benzoyl}-piperazin-1-yl)-hexanoic acid]
- Seiz. ([1]; 10 mg/kg IV): 0% 10 mg/kg IV
- EC50 (mouse vas deferens): 2.5 nM
- Ki (human delta receptor): 1.2 nM
- EC50 (guinea pig ileum): 445 nM

SMILES: C[C@@H]1CN([C@@H](c2cccc(O)c2)c2cccc(C(=O)N3CCN(CCCCCCC(=O)O)CC3)c2)[C@@H](C)CN1Cc1ccccc1 [Example 111, 7-(4-{3-[(R)-((2S,5R)-4-Benzyl-2,5-dimethyl-piperazin-1-yl)-(3-hydroxy-phenyl)-methyl]-benzoyl}-piperazin-1-yl)-heptanoic acid]
- Seiz. ([1]; 10 mg/kg IV): 0% 10 mg/kg IV
- EC50 (mouse vas deferens): 3.82 nM
- Ki (human mu opioid receptor): 8.7 nM
- Ki (human delta receptor): 0.77 nM

SMILES: C=CCN1C[C@H](C)N([C@@H](c2cccc(O)c2)c2cccc(C(=O)N3CCC(C(=O)O)CC3)c2)C[C@H]1C [Example 120, 1-{3-[(R)-((2S,5R)-4-Allyl-2,5-dimethyl-piperazin-1-yl)-(3-hydroxy-phenyl)-methyl]-benzoyl}-piperidine-4-carboxylic acid]
- Seiz. ([1]; 10 mg/kg IV): 10% 10 mg/kg IV
- EC50 (mouse vas deferens): 2.49 nM
- Ki (human mu opioid receptor): 4.1 nM
- EC50 (guinea pig ileum): 48.6 nM

SMILES: C[C@@H]1CN([C@@H](c2cccc(O)c2)c2cccc(C(=O)N3CCC(C(=O)O)CC3)c2)[C@@H](C)CN1Cc1ccccc1 [Example 123, 1-{3-[(R)-((2S,5R)-4-Benzyl-2,5-dimethyl-piperazin-1-yl)-(3-hydroxy-phenyl)-methyl]-benzoyl}-piperidine-4-carboxylic acid]
- Seiz. ([1]; 10 mg/kg IV): 0% 10 mg/kg IV
- EC50 (mouse vas deferens): 0.48 nM
- EC50 (guinea pig ileum): 17.8 nM

SMILES: C[C@@H]1CN([C@@H](c2cccc(O)c2)c2cccc(C(=O)N3CCC(C(=O)O)CC3)c2)[C@@H](C)CN1Cc1cccc(F)c1 [Example 125, 1-{3-[(R)-[(2S,5R)-4-(3-Fluoro-benzyl)-2,5-dimethyl-piperazin-1-yl]-(3-hydroxyphenyl)-methyl]-benzoyl}-piperidine-4-carboxylic acid]
- Seiz. ([1]; 10 mg/kg IV): 0% 10 mg/kg IV
- EC50 (mouse vas deferens): 1.42 nM
- EC50 (guinea pig ileum): 46.7 nM

SMILES: C=CCN1C[C@H](C)N([C@@H](c2cccc(O)c2)c2cccc(C(=O)N3CCC(=CC(=O)O)CC3)c2)C[C@H]1C [Example 138, (1-{3-[(R)-((2S,5R)-4-allyl-2,5-dimethyl-1-piperazinyl)(3-hydroxyphenyl)methyl]-benzoyl}-4-piperidinylidene)acetic acid]
- Seiz. ([1]; 10 mg/kg IV): 0% 10 mg/kg IV
- EC50 (mouse vas deferens): 1.35 nM
- Ki (human mu opioid receptor): 7.4 nM
- Ki (human delta receptor): 0.63 nM

SMILES: C=CCN1C[C@H](C)N([C@@H](c2cccc(O)c2)c2cccc(C(=O)N3CCC(NCc4ccc(C(=O)O)cc4)CC3)c2)C[C@H]1C [Example 140, 4-[(1-{3-[(R)-((2S,5R)-4-Allyl-2,5-dimethyl-piperazin-1-yl)-(3-hydroxy-phenyl)-methyl]-benzoyl}-piperidin-4-ylamino)-methyl]-benzoic acid]
- Seiz. ([1]; 10 mg/kg IV): 0% 10 mg/kg IV
- EC50 (mouse vas deferens): 6.74 nM
- Ki (human mu opioid receptor): 4.6 nM
- Ki (human delta receptor): 1.2 nM

SMILES: C=CCN1C[C@H](C)N([C@@H](c2cccc(O)c2)c2cccc(C(=O)N3CCC(NCCCC(=O)O)CC3)c2)C[C@H]1C [Example 142, 4-(1-{3-[(R)-((2S,5R)-4-Allyl-2,5-dimethyl-piperazin-1-yl)-(3-hydroxy-phenyl)-methyl]-benzoyl}-piperidin-4-ylamino)-butyric acid]
- Seiz. ([1]; 10 mg/kg IV): 0% 10 mg/kg IV
- EC50 (mouse vas deferens): 12.5 nM
- Ki (human mu opioid receptor): 8.7 nM
- Ki (human delta receptor): 1.7 nM

SMILES: C=CCN1C[C@H](C)N([C@@H](c2cccc(O)c2)c2cccc(C(=O)N3CCC[C@H]3C(=O)OC)c2)C[C@H]1C [Example 143, 1-{3-[(R)-((2S,5R)-4-Allyl-2,5-dimethyl-piperazin-1-yl)-(3-hydroxy-phenyl)-methyl]-benzoyl}-pyrrolidine-2-carboxylic acid (S)-methyl ester]
- Seiz. ([1]; 10 mg/kg IV): 10% 10 mg/kg IV
- EC50 (mouse vas deferens): 1.79 nM
- Ki (human mu opioid receptor): 0.5 nM
- Ki (human delta receptor): 1.5 nM
